Data reported in the OligoGym collection.
HELM strings list units from the 5' end as sugar, base in round brackets, then linkage (d deoxyribose, r ribose, m 2'-O-methyl, p phosphodiester). Strings are as the collection lists them; they lack the last nucleoside at the 3' end of the tested compound. [moe] = 2'-O-(2-methoxyethyl) (MOE); [sp] = phosphorothioate linkage; [m5C] = 5-methylcytosine

Target: UBE3A-ATS
Test: mouse, dose not given
Conditions: ASO

RNA1{[moe](T)[sp].[moe](T)p.[moe](G)p.[moe](T)p.[moe](A)p.d(G)[sp].d([m5C])[sp].d(T)[sp].d(A)[sp].d(T)[sp].d(A)[sp].d(G)[sp].d(G)[sp].d(T)[sp].d(G)[sp].[moe](T)p.[moe]([m5C])p.[moe](A)[sp].[moe]([m5C])}$$$$ (last 3' nucleoside missing)
3 h FOB score: 4 score 0-7

RNA1{[moe](T)[sp].[moe](T)p.[moe](G)p.[moe]([m5C])p.[moe](T)p.[moe](G)p.d(A)[sp].d(T)[sp].d([m5C])[sp].d(A)[sp].d([m5C])[sp].d(A)[sp].d(T)[sp].d(T)[sp].d(A)[sp].d([m5C])[sp].[moe]([m5C])p.[moe]([m5C])[sp].[moe](A)}$$$$ (last 3' nucleoside missing)
3 h FOB score: 1 score 0-7

RNA1{[moe](T)[sp].[moe](T)p.[moe](G)p.[moe]([m5C])p.[moe](T)p.d(G)[sp].d(A)[sp].d(T)[sp].d([m5C])[sp].d(A)[sp].d([m5C])[sp].d(A)[sp].d(T)[sp].d(T)[sp].d(A)[sp].[moe]([m5C])p.[moe]([m5C])p.[moe]([m5C])[sp].[moe](A)}$$$$ (last 3' nucleoside missing)
3 h FOB score: 0 score 0-7

RNA1{[moe](T)[sp].[moe](T)p.[moe](G)p.[moe]([m5C])p.d(T)[sp].d(G)[sp].d(A)[sp].d(T)[sp].d([m5C])[sp].d(A)[sp].d([m5C])[sp].d(A)[sp].d(T)[sp].d(T)[sp].[moe](A)p.[moe]([m5C])p.[moe]([m5C])p.[moe]([m5C])[sp].[moe](A)}$$$$ (last 3' nucleoside missing)
3 h FOB score: 0 score 0-7

RNA1{[moe](T)[sp].[moe](T)p.[moe](T)p.[moe](A)p.[moe](G)p.d(G)[sp].d(T)[sp].d([m5C])[sp].d(A)[sp].d(A)[sp].d([m5C])[sp].d([m5C])[sp].d(A)[sp].d(A)[sp].d(T)[sp].[moe](T)p.[moe](T)p.[moe](G)[sp].[moe]([m5C])}$$$$ (last 3' nucleoside missing)
3 h FOB score: 0 score 0-7

RNA1{[moe](T)[sp].[moe](T)p.[moe](T)p.[moe](A)p.[moe](T)p.d(A)[sp].d(G)[sp].d(G)[sp].d(G)[sp].d(T)[sp].d(G)[sp].d(G)[sp].d(T)[sp].d(T)[sp].d(G)[sp].[moe](G)p.[moe](T)p.[moe](T)[sp].[moe]([m5C])}$$$$ (last 3' nucleoside missing)
3 h FOB score: 6 score 0-7

RNA1{[moe](T)[sp].[moe](T)p.[moe](T)p.[moe](A)p.[moe](T)p.d(A)[sp].d([m5C])[sp].d(T)[sp].d(T)[sp].d(T)[sp].d(A)[sp].d([m5C])[sp].d([m5C])[sp].d([m5C])[sp].d(A)[sp].[moe](A)p.[moe]([m5C])p.[moe](T)[sp].[moe](T)}$$$$ (last 3' nucleoside missing)
3 h FOB score: 0 score 0-7

RNA1{[moe](T)[sp].[moe](T)p.[moe](T)p.[moe](A)p.[moe](T)p.d(T)[sp].d(G)[sp].d(G)[sp].d(T)[sp].d([m5C])[sp].d(A)[sp].d(T)[sp].d([m5C])[sp].d(T)[sp].d([m5C])[sp].[moe](G)p.[moe](G)p.[moe](G)[sp].[moe](T)}$$$$ (last 3' nucleoside missing)
3 h FOB score: 3.7 score 0-7

RNA1{[moe](T)[sp].[moe](T)p.[moe](T)p.[moe](G)p.[moe](G)p.d(T)[sp].d(A)[sp].d(T)[sp].d(T)[sp].d(G)[sp].d(A)[sp].d([m5C])[sp].d(A)[sp].d([m5C])[sp].d([m5C])[sp].[moe](T)p.[moe]([m5C])p.[moe]([m5C])[sp].[moe](A)}$$$$ (last 3' nucleoside missing)
3 h FOB score: 3.7 score 0-7

RNA1{[moe](T)[sp].[moe](T)p.[moe](T)p.[moe](G)p.[moe](G)p.d([m5C])[sp].d(T)[sp].d(T)[sp].d(T)[sp].d(A)[sp].d(T)[sp].d(A)[sp].d([m5C])[sp].d(T)[sp].d(T)[sp].[moe](T)p.[moe](A)p.[moe]([m5C])[sp].[moe]([m5C])}$$$$ (last 3' nucleoside missing)
3 h FOB score: 0 score 0-7

RNA1{[moe](T)[sp].[moe](T)p.[moe](T)p.[moe](G)p.[moe](T)p.d(A)[sp].d(G)[sp].d([m5C])[sp].d(T)[sp].d(A)[sp].d(T)[sp].d(A)[sp].d(G)[sp].d(G)[sp].d(T)[sp].[moe](G)p.[moe](T)p.[moe]([m5C])[sp].[moe](A)}$$$$ (last 3' nucleoside missing)
3 h FOB score: 2.3 score 0-7

RNA1{[moe](T)[sp].[moe](T)p.[moe](T)p.[moe](G)p.[moe]([m5C])p.d(T)[sp].d(T)[sp].d(T)[sp].d(T)[sp].d([m5C])[sp].d(A)[sp].d(G)[sp].d(T)[sp].d([m5C])[sp].d(A)[sp].[moe](G)p.[moe](G)p.[moe](T)[sp].[moe](A)}$$$$ (last 3' nucleoside missing)
3 h FOB score: 1 score 0-7

RNA1{[moe](T)[sp].[moe](T)p.[moe](T)p.[moe](T)p.[moe](A)p.d(T)[sp].d(T)[sp].d(G)[sp].d(G)[sp].d(T)[sp].d([m5C])[sp].d(A)[sp].d(T)[sp].d([m5C])[sp].d(T)[sp].[moe]([m5C])p.[moe](G)p.[moe](G)[sp].[moe](G)}$$$$ (last 3' nucleoside missing)
3 h FOB score: 2.3 score 0-7

RNA1{[moe](T)[sp].[moe](T)p.[moe](T)p.[moe](T)p.[moe](T)p.[moe]([m5C])p.d([m5C])[sp].d(A)[sp].d(T)[sp].d(T)[sp].d(T)[sp].d(T)[sp].d(T)[sp].d([m5C])[sp].d(T)[sp].d([m5C])[sp].[moe](T)p.[moe](T)[sp].[moe](A)}$$$$ (last 3' nucleoside missing)
3 h FOB score: 1 score 0-7

RNA1{[moe](T)[sp].[moe](T)p.[moe](T)p.[moe](T)p.[moe](T)p.d([m5C])[sp].d([m5C])[sp].d(A)[sp].d(T)[sp].d(T)[sp].d(T)[sp].d(T)[sp].d(T)[sp].d([m5C])[sp].d(T)[sp].[moe]([m5C])p.[moe](T)p.[moe](T)[sp].[moe](A)}$$$$ (last 3' nucleoside missing)
3 h FOB score: 1.3 score 0-7

RNA1{[moe](T)[sp].[moe](T)p.[moe](T)p.[moe](T)p.d(T)[sp].d([m5C])[sp].d([m5C])[sp].d(A)[sp].d(T)[sp].d(T)[sp].d(T)[sp].d(T)[sp].d(T)[sp].d([m5C])[sp].[moe](T)p.[moe]([m5C])p.[moe](T)p.[moe](T)[sp].[moe](A)}$$$$ (last 3' nucleoside missing)
3 h FOB score: 1 score 0-7

RNA1{[moe](T)[sp].[moe](T)p.[moe](T)p.[moe]([m5C])p.[moe](A)p.d(T)[sp].d([m5C])[sp].d(A)[sp].d(G)[sp].d(T)[sp].d(T)[sp].d(A)[sp].d(G)[sp].d(T)[sp].d([m5C])[sp].[moe](A)p.[moe](G)p.[moe](G)[sp].[moe](T)}$$$$ (last 3' nucleoside missing)
3 h FOB score: 2 score 0-7

RNA1{[moe](T)[sp].[moe](T)p.[moe]([m5C])p.[moe](A)[sp].d([m5C])[sp].d([m5C])[sp].d(A)[sp].d(T)[sp].d(T)[sp].d(T)[sp].d(T)[sp].d(G)[sp].[moe](A)p.[moe]([m5C])p.[moe]([m5C])p.[moe](T)[sp].[moe](T)}$$$$ (last 3' nucleoside missing)
3 h FOB score: 0 score 0-7

RNA1{[moe](T)[sp].[moe](T)p.[moe]([m5C])p.[moe](A)p.[moe](T)p.d([m5C])[sp].d(A)[sp].d(G)[sp].d(T)[sp].d(T)[sp].d(A)[sp].d(G)[sp].d(T)[sp].d([m5C])[sp].d(A)[sp].[moe](G)p.[moe](G)p.[moe](T)[sp].[moe](T)}$$$$ (last 3' nucleoside missing)
3 h FOB score: 4 score 0-7

RNA1{[moe](T)[sp].[moe](T)p.[moe]([m5C])p.[moe](A)p.[moe]([m5C])p.[moe]([m5C])p.d(A)[sp].d(T)[sp].d(T)[sp].d(T)[sp].d(T)[sp].d(G)[sp].d(A)[sp].d([m5C])[sp].d([m5C])[sp].d(T)[sp].[moe](T)p.[moe]([m5C])[sp].[moe](T)}$$$$ (last 3' nucleoside missing)
3 h FOB score: 0 score 0-7

RNA1{[moe](T)[sp].[moe](T)p.[moe]([m5C])p.[moe](A)p.[moe]([m5C])p.d([m5C])[sp].d(A)[sp].d(T)[sp].d(T)[sp].d(T)[sp].d(T)[sp].d(G)[sp].d(A)[sp].d([m5C])[sp].d([m5C])[sp].[moe](T)p.[moe](T)p.[moe]([m5C])[sp].[moe](T)}$$$$ (last 3' nucleoside missing)
3 h FOB score: 1 score 0-7

RNA1{[moe](T)[sp].[moe](T)p.[moe]([m5C])p.[moe](A)p.d([m5C])[sp].d([m5C])[sp].d(A)[sp].d(T)[sp].d(T)[sp].d(T)[sp].d(T)[sp].d(G)[sp].d(A)[sp].d([m5C])[sp].[moe]([m5C])p.[moe](T)p.[moe](T)p.[moe]([m5C])[sp].[moe](T)}$$$$ (last 3' nucleoside missing)
3 h FOB score: 1 score 0-7

RNA1{[moe](T)[sp].[moe](T)p.[moe]([m5C])p.[moe](T)p.[moe](G)p.d(G)[sp].d(A)[sp].d(A)[sp].d(T)[sp].d([m5C])[sp].d(T)[sp].d(T)[sp].d(G)[sp].d(T)[sp].d(A)[sp].[moe](G)p.[moe](A)p.[moe](G)[sp].[moe](G)}$$$$ (last 3' nucleoside missing)
3 h FOB score: 3 score 0-7

RNA1{[moe](T)[sp].[moe](T)p.[moe]([m5C])p.[moe](T)p.[moe](T)p.d(G)[sp].d([m5C])[sp].d(T)[sp].d(G)[sp].d(A)[sp].d(T)[sp].d([m5C])[sp].d(A)[sp].d([m5C])[sp].d(A)[sp].[moe](T)p.[moe](T)p.[moe](A)[sp].[moe]([m5C])}$$$$ (last 3' nucleoside missing)
3 h FOB score: 0 score 0-7

RNA1{[moe](T)[sp].[moe](T)p.[moe]([m5C])p.[moe](T)p.[moe]([m5C])p.d(A)[sp].d([m5C])[sp].d([m5C])[sp].d(T)[sp].d(A)[sp].d(G)[sp].d(G)[sp].d([m5C])[sp].d(T)[sp].d(G)[sp].[moe](G)p.[moe](G)p.[moe]([m5C])[sp].[moe]([m5C])}$$$$ (last 3' nucleoside missing)
3 h FOB score: 2.8 score 0-7

RNA1{[moe](T)[sp].[moe](T)p.[moe]([m5C])p.[moe]([m5C])p.[moe]([m5C])p.d(A)[sp].d(T)[sp].d(T)[sp].d([m5C])[sp].d(A)[sp].d(G)[sp].d([m5C])[sp].d(A)[sp].d([m5C])[sp].d(T)[sp].[moe](T)p.[moe](A)p.[moe](G)[sp].[moe](G)}$$$$ (last 3' nucleoside missing)
3 h FOB score: 3.3 score 0-7
